Source: US20190032014A1, “USING MICROBIOTA METABOLITES TO DIFFERENTIATE NAÏVE T-CELLS AND RELATED METHODS TO INDUCE OR PREVENT INFLAMMATORY CONDITIONS” (THE TEXAS A&M UNIVERSITY SYSTEM, priority 2016, published 2019)
“Also recorded” adds a separate entry of the source.

How the values were obtained:
[1] = test system: CD4+ CD25− naïve T cells; assay: In vitro naïve T cell differentiation, Th17-skew (IL-17+ by FACS); type: cell-based, C57BL/6 mice; settings: for effect on % IL-17+ cells / Th17 differentiation: vs DMF control
Description: Mesenteric lymph node (MLN) and spleen are harvested from WT or FOXP3^EGFP C57Bl/6 mice and homogenized. Spleen tissue is subjected to red blood cell lysis and pooled into a single cell suspension for counting. Counted cells are resuspended in sterile FACS buffer (PBS++ with 05% bovine serum albumin) at a concentration of ˜5×10^7 cells/mL and stained for 45 minutes at 4° C. with anti-CD4 and anti-CD25 fluorophore-conjugated monoclonal antibodies (mAb). After two washes, the stained cells are resuspended at ˜6×10^6 cells/mL in FACS buffer and immediately sorted. […] TDMMs are solubilized in DMF at 2 M and used at desired concentrations (e.g., 0.01, 0.1, 0.5 and 1.0 mM) in growth media; DMF in growth media (0.05%) is used as a solvent control.
The % of Treg or Th17 cells are determined based on the expression of signature transcription factors, FoxP3 and Rorγt, respectively. In addition, signature cytokine markers for Treg and Th17, TGFβ or IL-17, respectively, among others are measured using intracellular cytokine staining. Since it is possible that a cell could be positive for FoxP3 and still express some IL-17, the final % of Tregs are determined as the cell population that is FoxP3+TGFβ+ Rorγt-IL-17−. Similarly, the % of Th17 cells are determined as the population that is FoxP3-TGFβ− Rorγt+IL-17+.
CD4+ CD25− T cells were isolated to high purity (>98%) from the pooled spleen and mesenteric lymph nodes of C57BL/6 mice (Jackson Labs) with a BD FACS Aria II flow cytometer. Fc Block (BD), αCD4-efluor450 (eBioscience clone GK1.5) and αCD25-PECy7 (eBioscience clone PC61.5) antibodies were used for staining before sorting.
For Th1-skew: 5 ng/mL IL-12 (Peprotech cat. #210-12) and 10 µg/mL αIL-4 (BioXCell clone 11B11) were added to culture. For Th2-skew: 10 ng/mL IL-4 (Peprotech) and 10 μg/mL αIFN-γ (BioXCell clone R4-6A2) were added to culture. For Th17-skew: 10 ng/mL IL-6 (Peprotech), 5 ng/mL IL-23 (R&D), 0.5 ng/mL TGF-β (Peprotech), 10 μg/mL al-4 (BioXCell clone 11B11), and 10 μg/mL αIFN-γ (BioXCell clone R4-6A2) were added to culture. For Treg-skew: 2 ng/mL TGF-β (Peprotech) and 100 U/mL IL-2 (Roche) were added to culture. Sodium Propionate, sodium acetate, sodium butyrate and sodium chloride (all from Sigma-Aldrich) were solubilized in media and added to culture. Indole was solubilized in DMF (both from Sigma-Aldrich) at 2M and brought to final concentration in media. MGCD0103 (Selleck Chemicals) was solubilized in DMF at 2 mM and brought to final concentration in media. A 0.05% DMF solvent control was used for all experiments.

[2] = test system: effector T cell proliferation; assay: Suppression assay of effector T cell proliferation by iTregs; type: cell-based, mice
Description: FOXP3-EGFP naïve CD4+ CD25− cells cultured in αCD3/28 coated wells with Treg-skew cytokines and indole or solvent control were cultured for 72 hours, and assessed for FoxP3 expression and proliferation by CFSE dilution.
Specifically, FIG. 13 graphically illustrates the results of the suppression assay, showing the suppression of T-cell proliferation as determined by IL-2 production (an essential marker of T-cell proliferation) with increased proportions of Tregs added to co-cultures with effector T-cells..
After 72 h, cells are stimulated with PMA/ionomycin (10 ng/mL PMA, […] ionomycin). For flow cytometry, cells are treated with Golgi plug (Brefeldin A) for four hours and then stained with fluorophore-conjugated mAbs against both inflammatory (e.g., IL-6, IL-12, IL-17, TNF-α) and anti-inflammatory (e.g., IL-10, IL-35, TGF-β) cytokines. Samples are stained with the maximum number of antibodies. Furthermore, expression of established Treg markers (FOXP3, CD25hi, CD103, CD62L, GITR, PD-1, CD152, CD127, ICOS, Granzyme-B) [Vignali, D. A., L. W. Collison, and C. J. Workman, Nat Rev Immunol 8(7):523-32. (2008); Chen, J., et al., Int Immunopharmacol 11(5):610-7 (2011)] and markers of an inflammatory phenotype (RORγT) can be analyzed. […] The effect of the TDMMs on suppression of effector T cell proliferation is determined as described for FIG. 4. […]

[3] = test system: IL-6 receptor / pSTAT3; assay: IL-6 receptor levels and STAT3 activity; type: cell-based; settings: vs control
Description: Indole and 5-HI were assessed for impact on TGF-β receptor expression and SMAD2/3 activity. […] Indole and 5-HI were also assessed for impact on IL-6 receptor levels and subsequent STAT3 activity.

[4] = test system: wild-type or AhR KO T cells; assay: T cell differentiation in wild-type vs AhR KO T cells; type: cell-based, mice
Description: The aryl hydrocarbon receptor (AhR) is implicated in the differentiation of Treg and Th17 cells. The role of AhR was assessed with respect to indole's effect on Treg augmentation. Wild-type and AhR KO naïve T-cells were conditioned with increasing amounts of indole and then assessed for % of FoxP3 expression. […] Additionally, the role of AhR was assessed with respect to indole's effect on Th17 inhibition.
The AhR knockout was further investigated for iTreg homing markers, CD62L and α4β7, as described above.
Next, the AhR knockout was further investigated for the impact of AhR on 5-HI-mediated T cell differentiation.

[5] = test system: naïve T cells obtained from humans; assay: Skewing of naïve T cells obtained from humans; type: cell-based
[6] = test system: NF-κB; settings: intestinal epithelial cells (IECs); Bansal et al. 2010; cited from earlier work
[7] = test system: FoxP3+ cells; assay: Homing markers (α4β7, CD62L) on iTreg cells

Q: For `c1ccc2[nH]ccc2c1` [Indole, indole], which “expansion of Th17 cells (proportion)” value ([1]; 1 mM indole, Th17-skewing conditions, solvent control 13.5%) is on record?
A: 1.4%

Q: And the “% IL-17+ cells, indole added to butyrate and 5-HI” value ([1]; Th17 skewing conditions)?
A: generally reversed after conditioning with indole

Q: What about the “% IL-17+ cells, indole combined with 5-HI” value ([1]; Th17 skewing conditions, vs 5-HI alone) of the same compound?
A: not just negated, but actually reversed

Q: And the “effect on % IL-17+ cells / Th17 differentiation” value ([1]; Th17 skewing conditions)?
A: significantly decreased the % of IL-17+ cells

Q: And the “effect on % IL-17+ cells / Th17 differentiation” value ([1]; Th17 skewing conditions, listed as indole)?
A: dose-dependent; also recorded: inhibits a Th17 response; also recorded: inhibits the development of illustrates % IL-17+ cells

Q: What about the “Rorγt expression in Th17 cells” value ([1]; unpublished data) of the same compound?
A: inhibits Rorγt expression in Th17 cells

Q: What about the “level of IL-17 expression (MFI)” value ([1]; vs solvent control) of the same compound?
A: decreased

Q: What about the “suppression of effector T cell proliferation” value ([2]; indole-conditioned Tregs, 72-hour suppression assay, vs control iTregs (DMF)) of the same compound?
A: suppress effector T cell proliferation function

Q: What about the “suppression of T-cell proliferation (IL-2 production)” value ([2]; indole-induced iTregs vs nTregs or butyrate-induced iTregs) of the same compound?
A: stronger suppressive characteristics, than nTregs or iTregs induced by butyrate

Q: And the “% IL-6 receptor+ cells” value [3]?
A: decrease

Q: What about the “% pSTAT3+ cells / IL-6 induced stat3” value [3] of the same compound?
A: decrease

Q: What about the “% IL-17+ in wild-type vs AhR KO T cells” value [4] of the same compound?
A: decreased significantly more in wild-type over AhR KO T cells

Q: What about the “AhR dependence of effects (AhR knockout mice, unpublished data)” value [4] of the same compound?
A: some of the effects of indole are not AhR dependent

Q: And the “FoxP3+ % in wild-type vs AhR KO T cells” value ([4]; increasing amounts of test substance)?
A: increased significantly more in wild-type over AhR KO T cells

Q: And the “expression of CD62L and α4β7 in FoxP3+ wild-type or AhR KO T cells” value ([4]; with or without RA)?
A: roughly equivalent with only minor differences

Q: And the “skewing effects on Tregs and Th17 cells in human cells” value [5]?
A: recapitulated on naïve T cells obtained from humans

Q: What about the “NF-κB activation and indicators of inflammation” value [6] of the same compound?
A: inhibits NF-κB activation and attenuates indicators of inflammation

Q: And the “% of α4β7+ in FoxP3+ cells” value ([7]; indole alone)?
A: increases the % of α4β7+ in FoxP3+ cells

Q: What about the “% of α4β7+ in FoxP3+ cells” value ([7]; indole combined with retinoic acid (RA)) of the same compound?
A: amplified when combined with retinoic acid (RA)

Q: What about the “% α4β7+ on iTreg cells” value ([7]; indole with acetate, propionate or butyrate at multiple concentrations) of the same compound?
A: increases α4β7 in the presence of SCFAs, except for high levels of butyrate

Q: And the “CD62L+ on FoxP3+ cells” value ([7]; with and without retinoic acid (RA))?
A: increase of CD62L+ on FoxP3+ cells with and without combination with retinoic acid (RA)
